Experimental data published in ChEMBL document CHEMBL4138238, “A minimalistic approach to develop new anti-apicomplexa polyamines analogs” (Eur J Med Chem, 2018).
Active and inactive are the calls of the source. The calls are words filed in the database; no cut-off is given here.

Columns and labels:
[1] = Selectivity index, ratio of IC50 for African green monkey Vero cells to IC50 for chloroquine-resistant Plasmodium falciparum W2; assay type: toxicity; conditions: read-out: Ratio IC50
Plasmodium falciparum [2] = assay: microbe, parasite or virus in culture; conditions: D6, 48 h
Toxoplasma gondii [3] = assay: Growth inhibition of GFP-fused Toxoplasma gondii RH infected in HFF at 1 uM after 3 days by fluorescence microscopic method relative to control; assay type: functional; conditions: for inhibition of growth at 1 µM: 72 h, read-out: GI
Plasmodium falciparum [4] = assay: microbe, parasite or virus in culture; conditions: W2, 48 h
[5] = Selectivity index, ratio of IC50 for African green monkey Vero cells to IC50 for chloroquine-sensitive Plasmodium falciparum D6; assay type: toxicity; conditions: read-out: Ratio IC50
Vero = assay: Cytotoxicity against African green monkey Vero cells assessed as reduction in cell viability after 48 hrs; assay type: cell-based; conditions: Chlorocebus sabaeus
Toxoplasma gondii [6] = assay: Antiparasitic activity against Toxoplasma gondii RH infected in HFF treated at 4 hrs post infection measured at 5 days post infection by crystal violet staining based method; assay type: functional, organism-based
HFF = assay: Cytotoxicity against HFF cells at 10 uM; assay type: cell-based; conditions: human

SMILES: COc1ccc(CNCCCCCCCCCCCCNCc2ccc(OC)c(O)c2)cc1O
- selectivity ratio [1]: > 3.5
- IC50 (Plasmodium falciparum [2]): 1970 nM
- inhibition of growth at 1 µM (Toxoplasma gondii [3]): 25%
- IC50 (Plasmodium falciparum [4]): 2880 nM
- selectivity ratio [5]: > 5.1
- IC50 (Vero): > 4.46 µg/mL

SMILES: COc1ccc(CNCCCCCCNCc2ccc(OC)cc2)cc1
- selectivity ratio [1]: 2.5
- IC50 (Plasmodium falciparum [2]): 3080 nM
- inhibition of growth at 1 µM (Toxoplasma gondii [3]): 25%
- IC50 (Plasmodium falciparum [4]): 3360 nM
- selectivity ratio [5]: 2.4

SMILES: COc1ccc(CNCCCCCCCCCCNCc2ccc(OC)cc2)cc1
- selectivity ratio [1]: > 17
- IC50 (Plasmodium falciparum [2]): 600 nM
- inhibition of growth at 1 µM (Toxoplasma gondii [3]): 50%
- IC50 (Plasmodium falciparum [4]): 670 nM
- selectivity ratio [5]: > 19
- IC50 (Vero): > 4.46 µg/mL

SMILES: COc1cc(CNCCCCCCNCc2ccc(OCc3ccccc3)c(OC)c2)ccc1OCc1ccccc1
- selectivity ratio [1]: > 19
- IC50 (Plasmodium falciparum [2]): 260 nM
- inhibition of growth at 1 µM (Toxoplasma gondii [3]): 25%
- IC50 (Plasmodium falciparum [4]): 440 nM
- selectivity ratio [5]: > 31.7
- IC50 (Vero): > 4.46 µg/mL

SMILES: COc1cc(CNCCCCCCCCCCCCNCc2ccc(OCc3ccccc3)c(OC)c2)ccc1OCc1ccccc1
- selectivity ratio [1]: > 5.3
- IC50 (Plasmodium falciparum [2]): 1280 nM
- inhibition of growth at 1 µM (Toxoplasma gondii [3]): 25%
- IC50 (Plasmodium falciparum [4]): 1370 nM
- selectivity ratio [5]: > 5.67
- IC50 (Vero): > 4.46 µg/mL

SMILES: COc1ccc(CNCCCCCCCCNCc2ccc(OC)c(O)c2)cc1O
- selectivity ratio [1]: > 2.1
- IC50 (Plasmodium falciparum [2]): 4800 nM
- inhibition of growth at 1 µM (Toxoplasma gondii [3]): 25%
- IC50 (Plasmodium falciparum [4]): 5520 nM
- selectivity ratio [5]: > 2.38
- IC50 (Vero): > 4.46 µg/mL

SMILES: c1ccc(CNCCCNCc2ccccc2)cc1
- selectivity ratio [1]: > 7.1
- IC50 (Plasmodium falciparum [2]): 2350 nM
- inhibition of growth at 1 µM (Toxoplasma gondii [3]): 25%
- IC50 (Plasmodium falciparum [4]): 2630 nM
- selectivity ratio [5]: > 7.9
- IC50 (Vero): > 4.46 µg/mL

SMILES: COc1ccc(CNCCCCNCc2ccc(OC)c(O)c2)cc1O
- IC50 (Plasmodium falciparum [2]): > 8000 nM
- inhibition of growth at 1 µM (Toxoplasma gondii [3]): 75%
- IC50 (Plasmodium falciparum [4]): > 8000 nM
- IC50 (Vero): > 4.46 µg/mL

SMILES: COc1cc(CNCCCCCCCCCCNCc2ccc(OCc3ccccc3)c(OC)c2)ccc1OCc1ccccc1
- selectivity ratio [1]: > 7.2
- IC50 (Plasmodium falciparum [2]): 1120 nM
- inhibition of growth at 1 µM (Toxoplasma gondii [3]): 25%
- IC50 (Plasmodium falciparum [4]): 1050 nM
- selectivity ratio [5]: > 6.8
- IC50 (Vero): > 4.46 µg/mL

SMILES: COc1ccc(CNCCCCCCCCCCNCc2ccc(OC)c(O)c2)cc1O
- selectivity ratio [1]: > 5.7
- IC50 (Plasmodium falciparum [2]): 1970 nM
- inhibition of growth at 1 µM (Toxoplasma gondii [3]): 25%
- IC50 (Plasmodium falciparum [4]): 1880 nM
- selectivity ratio [5]: > 5.41
- IC50 (Vero): > 4.46 µg/mL

SMILES: COc1cc(CNCCCCNCc2ccc(OCc3ccccc3)c(OC)c2)ccc1OCc1ccccc1
- selectivity ratio [1]: > 18.4
- IC50 (Plasmodium falciparum [2]): 330 nM
- inhibition of growth at 1 µM (Toxoplasma gondii [3]): 50%
- IC50 (Plasmodium falciparum [4]): 490 nM
- selectivity ratio [5]: > 27.4
- IC50 (Vero): > 4.46 µg/mL

SMILES: COc1ccc(CNCCCNCc2ccc(OC)c(O)c2)cc1O
- IC50 (Plasmodium falciparum [2]): > 8000 nM
- IC50 (Plasmodium falciparum [4]): > 8000 nM
- IC50 (Vero): > 4.46 µg/mL

SMILES: COc1cc(CNCCCNCc2ccc(OCc3ccccc3)c(OC)c2)ccc1OCc1ccccc1
- IC50 (Plasmodium falciparum [2]): 420 nM
- IC50 (Toxoplasma gondii [6]): 1530 nM
- inhibition of growth at 1 µM (Toxoplasma gondii [3]): 100%
- IC50 (Plasmodium falciparum [4]): 470 nM
- Activity (HFF): Non-Toxic

SMILES: COc1ccc(CNCCCCNCc2ccc(OC)cc2)cc1
- selectivity ratio [1]: > 2.2
- IC50 (Plasmodium falciparum [2]): 4570 nM
- inhibition of growth at 1 µM (Toxoplasma gondii [3]): 25%
- IC50 (Plasmodium falciparum [4]): 6690 nM
- selectivity ratio [5]: > 3.2
- IC50 (Vero): > 4.46 µg/mL

SMILES: COc1ccc(CNCCCCCCCCNCc2ccc(OC)cc2)cc1
- selectivity ratio [1]: > 7.3
- IC50 (Plasmodium falciparum [2]): 1480 nM
- inhibition of growth at 1 µM (Toxoplasma gondii [3]): 25%
- IC50 (Plasmodium falciparum [4]): 1690 nM
- selectivity ratio [5]: > 8.4
- IC50 (Vero): > 4.46 µg/mL

SMILES: COc1ccc(CNCCCCCCCCCCCCNCc2ccc(OC)cc2)cc1
- selectivity ratio [1]: > 5.8
- IC50 (Plasmodium falciparum [2]): 1580 nM
- inhibition of growth at 1 µM (Toxoplasma gondii [3]): 75%
- IC50 (Plasmodium falciparum [4]): 1860 nM
- selectivity ratio [5]: > 6.8
- IC50 (Vero): > 4.46 µg/mL

SMILES: CCc1nc(N)nc(N)c1-c1ccc(Cl)cc1
- growth inhibition (GI) (Toxoplasma gondii [3]): inactive

SMILES: COc1ccc(CNCCCNCc2ccc(OC)cc2)cc1
- selectivity ratio [1]: > 2.8
- IC50 (Plasmodium falciparum [2]): 3180 nM
- inhibition of growth at 1 µM (Toxoplasma gondii [3]): 50%
- IC50 (Plasmodium falciparum [4]): 5410 nM
- selectivity ratio [5]: > 4.8
- IC50 (Vero): > 4.46 µg/mL

SMILES: C[C@@H]1CC[C@H]2[C@@H](C)C(=O)O[C@@H]3O[C@@]4(C)CC[C@@H]1[C@]32OO4 [ARTEMISININ]
- IC50 (Plasmodium falciparum [2]): 94 nM
- IC50 (Plasmodium falciparum [4]): 94 nM

SMILES: COc1ccc(CNCCCCCCNCc2ccc(OC)c(O)c2)cc1O
- IC50 (Plasmodium falciparum [2]): > 8000 nM
- inhibition of growth at 1 µM (Toxoplasma gondii [3]): 50%
- IC50 (Plasmodium falciparum [4]): > 8000 nM
- IC50 (Vero): > 4.46 µg/mL

SMILES: COc1cc(CNCCCCCCCCNCc2ccc(OCc3ccccc3)c(OC)c2)ccc1OCc1ccccc1
- selectivity ratio [1]: 10.5
- IC50 (Plasmodium falciparum [2]): 310 nM
- growth inhibition (GI) (Toxoplasma gondii [3]): inactive
- IC50 (Plasmodium falciparum [4]): 430 nM
- selectivity ratio [5]: 14.6
- IC50 (Vero): 4520 nM
